Ki data for seven molecules are collected here from ChEMBL document CHEMBL5442175, “EUbOPEN Chemogenomics Library - PDSP Secondary Binding” (2024).

For assay [1], the target named is T1, Alpha-2A adrenergic receptor (Homo sapiens, UniProt P08913).
T1 sequence (P08913 whole entry): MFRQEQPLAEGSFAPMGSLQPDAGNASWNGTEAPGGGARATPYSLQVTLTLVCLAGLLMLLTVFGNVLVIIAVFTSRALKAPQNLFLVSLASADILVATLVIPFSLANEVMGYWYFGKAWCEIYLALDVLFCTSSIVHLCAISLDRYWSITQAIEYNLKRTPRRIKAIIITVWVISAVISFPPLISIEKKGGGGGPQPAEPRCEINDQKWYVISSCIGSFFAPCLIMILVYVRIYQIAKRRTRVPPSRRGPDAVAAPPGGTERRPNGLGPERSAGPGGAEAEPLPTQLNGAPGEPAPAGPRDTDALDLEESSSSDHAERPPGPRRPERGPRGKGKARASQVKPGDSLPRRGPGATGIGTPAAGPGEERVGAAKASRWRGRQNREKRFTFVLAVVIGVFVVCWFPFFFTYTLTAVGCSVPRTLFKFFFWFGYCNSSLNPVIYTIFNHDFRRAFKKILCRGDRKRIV
Description: PDSP Secondary Binding target: ADRA2A - Compounds are tested at 10 uM concentration, plate are incubated at room temperature in the dark for 90 minutes. Reaction are stopped by vacuum filtration onto 0.3% polyethyleneimine soaked filter mats using Filtermate harvester. Scintillation cocktail is then melted onto microwave-dried filters on a hot plate and the radio activity is counted in Microbia counter.

The target in assay [2] is Histamine H4 receptor (Homo sapiens, UniProt Q9H3N8). Description: PDSP Secondary Binding target: HRH4 - Compounds are tested at 10 uM concentration, plate are incubated at room temperature in the dark for 90 minutes. Reaction are stopped by vacuum filtration onto 0.3% polyethyleneimine soaked filter mats using Filtermate harvester. Scintillation cocktail is then melted onto microwave-dried filters on a hot plate and the radio activity is counted in Microbia counter.

For assay [3], the target named is Histamine H3 receptor (Homo sapiens, UniProt Q9Y5N1). Description: PDSP Secondary Binding target: HRH3 - Compounds are tested at 10 uM concentration, plate are incubated at room temperature in the dark for 90 minutes. Reaction are stopped by vacuum filtration onto 0.3% polyethyleneimine soaked filter mats using Filtermate harvester. Scintillation cocktail is then melted onto microwave-dried filters on a hot plate and the radio activity is counted in Microbia counter.

In assay [4] the target is Sodium-dependent noradrenaline transporter (Homo sapiens, UniProt P23975). Description: PDSP Secondary Binding target: SLC6A2 - Compounds are tested at 10 uM concentration, plate are incubated at room temperature in the dark for 90 minutes. Reaction are stopped by vacuum filtration onto 0.3% polyethyleneimine soaked filter mats using Filtermate harvester. Scintillation cocktail is then melted onto microwave-dried filters on a hot plate and the radio activity is counted in Microbia counter.

Assay [5] addresses 5-hydroxytryptamine receptor 2A (Homo sapiens, UniProt P28223). Description: PDSP Secondary Binding target: HTR2A - Compounds are tested at 10 uM concentration, plate are incubated at room temperature in the dark for 90 minutes. Reaction are stopped by vacuum filtration onto 0.3% polyethyleneimine soaked filter mats using Filtermate harvester. Scintillation cocktail is then melted onto microwave-dried filters on a hot plate and the radio activity is counted in Microbia counter.

The target in assay [6] is Sigma intracellular receptor 2 (Homo sapiens, UniProt Q5BJF2). Description: PDSP Secondary Binding target: TMEM97 - Compounds are tested at 10 uM concentration, plate are incubated at room temperature in the dark for 90 minutes. Reaction are stopped by vacuum filtration onto 0.3% polyethyleneimine soaked filter mats using Filtermate harvester. Scintillation cocktail is then melted onto microwave-dried filters on a hot plate and the radio activity is counted in Microbia counter.

Assay [7] addresses Delta-type opioid receptor (Homo sapiens, UniProt P41143). Description: PDSP Secondary Binding target: OPRD1 - Compounds are tested at 10 uM concentration, plate are incubated at room temperature in the dark for 90 minutes. Reaction are stopped by vacuum filtration onto 0.3% polyethyleneimine soaked filter mats using Filtermate harvester. Scintillation cocktail is then melted onto microwave-dried filters on a hot plate and the radio activity is counted in Microbia counter.

Assay [8] concerns the target Histamine H1 receptor (Homo sapiens, UniProt P35367). Description: PDSP Secondary Binding target: HRH1 - Compounds are tested at 10 uM concentration, plate are incubated at room temperature in the dark for 90 minutes. Reaction are stopped by vacuum filtration onto 0.3% polyethyleneimine soaked filter mats using Filtermate harvester. Scintillation cocktail is then melted onto microwave-dried filters on a hot plate and the radio activity is counted in Microbia counter.

For assay [9], the target named is Sodium-dependent dopamine transporter (Homo sapiens, UniProt Q01959). Description: PDSP Secondary Binding target: SLC6A3 - Compounds are tested at 10 uM concentration, plate are incubated at room temperature in the dark for 90 minutes. Reaction are stopped by vacuum filtration onto 0.3% polyethyleneimine soaked filter mats using Filtermate harvester. Scintillation cocktail is then melted onto microwave-dried filters on a hot plate and the radio activity is counted in Microbia counter.

Assay [10] addresses T2, Muscarinic acetylcholine receptor M2 (Homo sapiens, UniProt P08172).
T2 sequence (P08172 whole entry): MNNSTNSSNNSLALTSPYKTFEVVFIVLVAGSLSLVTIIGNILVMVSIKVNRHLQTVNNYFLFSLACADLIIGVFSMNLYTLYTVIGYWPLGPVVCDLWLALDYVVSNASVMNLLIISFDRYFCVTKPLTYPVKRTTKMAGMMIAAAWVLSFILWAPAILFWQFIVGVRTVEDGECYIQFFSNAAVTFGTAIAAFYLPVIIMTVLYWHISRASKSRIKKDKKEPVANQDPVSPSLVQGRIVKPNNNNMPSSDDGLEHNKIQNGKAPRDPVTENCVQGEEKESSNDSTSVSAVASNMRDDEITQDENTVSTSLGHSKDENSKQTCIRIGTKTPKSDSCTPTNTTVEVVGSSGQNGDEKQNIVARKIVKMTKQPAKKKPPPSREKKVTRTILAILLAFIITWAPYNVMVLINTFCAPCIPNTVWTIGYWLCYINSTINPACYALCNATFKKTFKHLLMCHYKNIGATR
Description: PDSP Secondary Binding target: CHRM2 - Compounds are tested at 10 uM concentration, plate are incubated at room temperature in the dark for 90 minutes. Reaction are stopped by vacuum filtration onto 0.3% polyethyleneimine soaked filter mats using Filtermate harvester. Scintillation cocktail is then melted onto microwave-dried filters on a hot plate and the radio activity is counted in Microbia counter.

Assay [11] has as its target T3, Muscarinic acetylcholine receptor M1 (Homo sapiens, UniProt P11229).
T3 sequence (P11229 whole entry): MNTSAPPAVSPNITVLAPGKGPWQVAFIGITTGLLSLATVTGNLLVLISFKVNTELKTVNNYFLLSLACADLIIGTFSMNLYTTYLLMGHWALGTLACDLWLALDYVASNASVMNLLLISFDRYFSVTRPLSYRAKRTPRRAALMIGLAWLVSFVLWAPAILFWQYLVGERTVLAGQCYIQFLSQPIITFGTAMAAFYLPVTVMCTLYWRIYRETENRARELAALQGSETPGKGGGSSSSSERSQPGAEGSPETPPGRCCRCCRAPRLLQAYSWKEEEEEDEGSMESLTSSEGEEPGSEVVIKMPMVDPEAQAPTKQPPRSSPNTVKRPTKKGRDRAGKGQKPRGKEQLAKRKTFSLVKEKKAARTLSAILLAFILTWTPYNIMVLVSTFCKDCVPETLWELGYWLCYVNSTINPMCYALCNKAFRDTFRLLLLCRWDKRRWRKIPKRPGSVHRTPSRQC
Description: PDSP Secondary Binding target: CHRM1 - Compounds are tested at 10 uM concentration, plate are incubated at room temperature in the dark for 90 minutes. Reaction are stopped by vacuum filtration onto 0.3% polyethyleneimine soaked filter mats using Filtermate harvester. Scintillation cocktail is then melted onto microwave-dried filters on a hot plate and the radio activity is counted in Microbia counter.

Assay [12] has as its target T4, Alpha-2C adrenergic receptor (Homo sapiens, UniProt P18825).
T4 sequence (P18825 whole entry): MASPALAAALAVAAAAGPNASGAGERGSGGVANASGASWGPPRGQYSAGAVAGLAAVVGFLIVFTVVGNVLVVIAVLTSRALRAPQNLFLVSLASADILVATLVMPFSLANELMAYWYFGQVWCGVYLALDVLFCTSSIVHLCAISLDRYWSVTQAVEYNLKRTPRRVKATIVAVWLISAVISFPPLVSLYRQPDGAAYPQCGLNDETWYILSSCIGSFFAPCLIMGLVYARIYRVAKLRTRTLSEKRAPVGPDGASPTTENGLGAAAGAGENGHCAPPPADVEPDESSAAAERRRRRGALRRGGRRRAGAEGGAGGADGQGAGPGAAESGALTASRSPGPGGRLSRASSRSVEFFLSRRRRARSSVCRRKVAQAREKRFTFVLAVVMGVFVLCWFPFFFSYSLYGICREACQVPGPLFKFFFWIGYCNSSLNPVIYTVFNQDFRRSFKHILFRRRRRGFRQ
Description: PDSP Secondary Binding target: ADRA2C - Compounds are tested at 10 uM concentration, plate are incubated at room temperature in the dark for 90 minutes. Reaction are stopped by vacuum filtration onto 0.3% polyethyleneimine soaked filter mats using Filtermate harvester. Scintillation cocktail is then melted onto microwave-dried filters on a hot plate and the radio activity is counted in Microbia counter.

Assay [13] concerns the target Mu-type opioid receptor (Homo sapiens, UniProt P35372). Description: PDSP Secondary Binding target: OPRM1 - Compounds are tested at 10 uM concentration, plate are incubated at room temperature in the dark for 90 minutes. Reaction are stopped by vacuum filtration onto 0.3% polyethyleneimine soaked filter mats using Filtermate harvester. Scintillation cocktail is then melted onto microwave-dried filters on a hot plate and the radio activity is counted in Microbia counter.

For assay [14], the target named is Kappa-type opioid receptor (Homo sapiens, UniProt P41145). Description: PDSP Secondary Binding target: OPRK1 - Compounds are tested at 10 uM concentration, plate are incubated at room temperature in the dark for 90 minutes. Reaction are stopped by vacuum filtration onto 0.3% polyethyleneimine soaked filter mats using Filtermate harvester. Scintillation cocktail is then melted onto microwave-dried filters on a hot plate and the radio activity is counted in Microbia counter.

The target in assay [15] is Sigma non-opioid intracellular receptor 1 (Homo sapiens, UniProt Q99720). Description: PDSP Secondary Binding target: SIGMAR1 - Compounds are tested at 10 uM concentration, plate are incubated at room temperature in the dark for 90 minutes. Reaction are stopped by vacuum filtration onto 0.3% polyethyleneimine soaked filter mats using Filtermate harvester. Scintillation cocktail is then melted onto microwave-dried filters on a hot plate and the radio activity is counted in Microbia counter.

Assay [16] deals with T5, Muscarinic acetylcholine receptor M5 (Homo sapiens, UniProt P08912).
T5 sequence (P08912 whole entry): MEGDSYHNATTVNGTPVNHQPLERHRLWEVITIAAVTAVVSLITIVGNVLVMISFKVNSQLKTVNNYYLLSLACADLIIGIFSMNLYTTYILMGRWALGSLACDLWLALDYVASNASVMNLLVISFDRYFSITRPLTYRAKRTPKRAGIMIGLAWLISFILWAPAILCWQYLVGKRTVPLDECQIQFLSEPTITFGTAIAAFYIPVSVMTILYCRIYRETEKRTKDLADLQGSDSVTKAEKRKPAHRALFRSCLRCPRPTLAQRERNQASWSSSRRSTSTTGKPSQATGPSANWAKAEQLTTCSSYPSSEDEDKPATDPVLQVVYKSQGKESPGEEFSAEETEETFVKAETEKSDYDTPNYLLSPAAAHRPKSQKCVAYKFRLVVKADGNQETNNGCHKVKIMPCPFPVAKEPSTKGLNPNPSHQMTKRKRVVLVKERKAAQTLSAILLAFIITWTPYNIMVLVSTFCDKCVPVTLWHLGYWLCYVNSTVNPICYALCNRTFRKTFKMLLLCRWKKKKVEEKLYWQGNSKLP
Description: PDSP Secondary Binding target: CHRM5 - Compounds are tested at 10 uM concentration, plate are incubated at room temperature in the dark for 90 minutes. Reaction are stopped by vacuum filtration onto 0.3% polyethyleneimine soaked filter mats using Filtermate harvester. Scintillation cocktail is then melted onto microwave-dried filters on a hot plate and the radio activity is counted in Microbia counter.

Delta-type opioid receptor, sequence (P41143 whole entry): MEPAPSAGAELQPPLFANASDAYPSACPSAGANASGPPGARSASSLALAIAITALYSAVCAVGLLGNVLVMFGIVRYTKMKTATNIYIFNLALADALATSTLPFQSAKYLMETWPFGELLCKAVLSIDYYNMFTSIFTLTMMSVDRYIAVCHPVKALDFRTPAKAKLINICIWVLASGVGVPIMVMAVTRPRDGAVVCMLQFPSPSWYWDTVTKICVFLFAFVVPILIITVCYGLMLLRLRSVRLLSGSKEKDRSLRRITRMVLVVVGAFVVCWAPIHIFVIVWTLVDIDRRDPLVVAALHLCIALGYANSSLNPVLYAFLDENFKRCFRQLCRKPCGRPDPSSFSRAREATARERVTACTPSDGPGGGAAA
Histamine H3 receptor, sequence (Q9Y5N1 whole entry): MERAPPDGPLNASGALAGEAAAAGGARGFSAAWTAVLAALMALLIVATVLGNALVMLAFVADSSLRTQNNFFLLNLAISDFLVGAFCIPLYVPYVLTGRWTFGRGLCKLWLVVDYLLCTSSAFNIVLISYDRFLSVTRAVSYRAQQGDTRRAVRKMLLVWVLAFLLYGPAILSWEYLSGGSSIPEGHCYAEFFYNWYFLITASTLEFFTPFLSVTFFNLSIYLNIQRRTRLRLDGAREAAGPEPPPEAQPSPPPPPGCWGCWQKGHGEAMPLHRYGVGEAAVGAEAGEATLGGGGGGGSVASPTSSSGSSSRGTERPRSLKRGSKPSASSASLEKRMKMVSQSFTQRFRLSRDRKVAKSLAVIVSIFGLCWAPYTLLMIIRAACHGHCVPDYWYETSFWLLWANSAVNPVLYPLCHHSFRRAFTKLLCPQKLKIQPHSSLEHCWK
Sodium-dependent dopamine transporter, sequence (Q01959 whole entry): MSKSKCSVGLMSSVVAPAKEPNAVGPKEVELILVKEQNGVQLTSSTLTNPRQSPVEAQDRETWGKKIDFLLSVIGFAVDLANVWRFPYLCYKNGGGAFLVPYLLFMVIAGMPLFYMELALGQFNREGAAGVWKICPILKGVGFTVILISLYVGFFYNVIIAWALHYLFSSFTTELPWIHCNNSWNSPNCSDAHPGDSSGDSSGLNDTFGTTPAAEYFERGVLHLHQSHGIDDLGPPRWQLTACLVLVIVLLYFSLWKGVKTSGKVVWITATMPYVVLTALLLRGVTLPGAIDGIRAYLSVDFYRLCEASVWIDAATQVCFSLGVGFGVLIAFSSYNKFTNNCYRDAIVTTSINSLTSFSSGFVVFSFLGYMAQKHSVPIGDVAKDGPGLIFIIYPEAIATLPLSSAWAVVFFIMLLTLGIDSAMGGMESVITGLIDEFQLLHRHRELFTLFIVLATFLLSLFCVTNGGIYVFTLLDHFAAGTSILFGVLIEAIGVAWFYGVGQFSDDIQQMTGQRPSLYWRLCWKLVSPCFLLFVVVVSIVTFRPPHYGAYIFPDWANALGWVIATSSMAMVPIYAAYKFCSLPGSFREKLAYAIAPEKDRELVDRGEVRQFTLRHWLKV
Histamine H4 receptor, sequence (Q9H3N8 whole entry): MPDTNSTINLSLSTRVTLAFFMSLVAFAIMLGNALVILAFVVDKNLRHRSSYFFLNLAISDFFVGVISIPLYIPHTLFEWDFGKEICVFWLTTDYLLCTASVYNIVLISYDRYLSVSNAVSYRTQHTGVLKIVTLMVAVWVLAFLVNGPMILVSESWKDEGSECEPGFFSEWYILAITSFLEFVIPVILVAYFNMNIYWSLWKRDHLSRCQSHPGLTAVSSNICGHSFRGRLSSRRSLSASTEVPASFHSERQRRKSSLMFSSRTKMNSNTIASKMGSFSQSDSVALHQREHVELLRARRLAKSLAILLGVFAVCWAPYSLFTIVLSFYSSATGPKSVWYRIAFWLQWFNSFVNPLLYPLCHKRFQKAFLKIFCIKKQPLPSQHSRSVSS
Mu-type opioid receptor, sequence (P35372 whole entry): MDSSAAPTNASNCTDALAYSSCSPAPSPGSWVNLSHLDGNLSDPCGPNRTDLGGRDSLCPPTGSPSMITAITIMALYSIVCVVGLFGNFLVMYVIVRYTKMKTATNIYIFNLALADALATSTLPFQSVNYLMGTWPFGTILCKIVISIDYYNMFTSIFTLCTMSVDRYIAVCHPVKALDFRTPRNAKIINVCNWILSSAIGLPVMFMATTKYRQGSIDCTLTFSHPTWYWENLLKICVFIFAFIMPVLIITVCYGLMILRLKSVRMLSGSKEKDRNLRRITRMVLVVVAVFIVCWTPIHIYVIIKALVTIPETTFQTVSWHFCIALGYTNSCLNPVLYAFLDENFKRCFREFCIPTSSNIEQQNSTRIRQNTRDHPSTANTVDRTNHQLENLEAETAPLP
Sigma intracellular receptor 2, sequence (Q5BJF2 whole entry): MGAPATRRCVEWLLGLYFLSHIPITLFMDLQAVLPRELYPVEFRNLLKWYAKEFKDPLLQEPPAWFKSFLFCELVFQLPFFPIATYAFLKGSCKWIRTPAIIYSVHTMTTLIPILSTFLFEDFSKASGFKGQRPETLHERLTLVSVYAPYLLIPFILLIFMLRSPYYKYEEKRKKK
Sodium-dependent noradrenaline transporter, sequence (P23975 whole entry): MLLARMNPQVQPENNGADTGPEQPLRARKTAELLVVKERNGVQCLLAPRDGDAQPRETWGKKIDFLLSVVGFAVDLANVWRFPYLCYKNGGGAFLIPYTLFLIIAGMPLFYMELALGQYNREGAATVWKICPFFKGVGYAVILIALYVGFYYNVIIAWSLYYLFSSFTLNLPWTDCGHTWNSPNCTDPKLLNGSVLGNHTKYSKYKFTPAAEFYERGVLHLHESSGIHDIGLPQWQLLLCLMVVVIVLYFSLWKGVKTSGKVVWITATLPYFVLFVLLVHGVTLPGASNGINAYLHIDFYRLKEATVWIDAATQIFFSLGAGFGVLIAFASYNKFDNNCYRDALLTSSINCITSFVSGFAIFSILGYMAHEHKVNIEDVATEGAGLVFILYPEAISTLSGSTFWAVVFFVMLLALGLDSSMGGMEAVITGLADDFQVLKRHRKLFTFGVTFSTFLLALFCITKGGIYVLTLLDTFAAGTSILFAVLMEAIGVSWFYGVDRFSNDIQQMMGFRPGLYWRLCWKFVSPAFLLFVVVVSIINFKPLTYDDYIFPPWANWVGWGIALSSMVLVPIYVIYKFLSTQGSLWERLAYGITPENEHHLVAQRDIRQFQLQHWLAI
Sigma non-opioid intracellular receptor 1, sequence (Q99720 whole entry): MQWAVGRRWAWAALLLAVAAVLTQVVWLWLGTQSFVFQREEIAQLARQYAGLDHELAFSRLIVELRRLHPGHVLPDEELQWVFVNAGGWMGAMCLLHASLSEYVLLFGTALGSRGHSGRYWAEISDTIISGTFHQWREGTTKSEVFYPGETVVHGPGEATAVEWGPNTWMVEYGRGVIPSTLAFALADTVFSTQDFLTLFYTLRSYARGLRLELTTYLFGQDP
Kappa-type opioid receptor, sequence (P41145 whole entry): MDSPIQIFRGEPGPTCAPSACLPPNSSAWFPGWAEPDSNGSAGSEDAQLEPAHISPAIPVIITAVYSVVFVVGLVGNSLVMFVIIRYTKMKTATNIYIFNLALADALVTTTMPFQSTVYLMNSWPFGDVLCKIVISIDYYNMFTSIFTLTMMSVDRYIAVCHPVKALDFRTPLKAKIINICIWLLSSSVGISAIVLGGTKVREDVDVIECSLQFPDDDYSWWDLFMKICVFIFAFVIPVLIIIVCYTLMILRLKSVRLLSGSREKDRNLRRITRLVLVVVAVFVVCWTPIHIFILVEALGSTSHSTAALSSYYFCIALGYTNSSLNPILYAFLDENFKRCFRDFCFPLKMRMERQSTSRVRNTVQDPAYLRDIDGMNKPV
Histamine H1 receptor, sequence (P35367 whole entry): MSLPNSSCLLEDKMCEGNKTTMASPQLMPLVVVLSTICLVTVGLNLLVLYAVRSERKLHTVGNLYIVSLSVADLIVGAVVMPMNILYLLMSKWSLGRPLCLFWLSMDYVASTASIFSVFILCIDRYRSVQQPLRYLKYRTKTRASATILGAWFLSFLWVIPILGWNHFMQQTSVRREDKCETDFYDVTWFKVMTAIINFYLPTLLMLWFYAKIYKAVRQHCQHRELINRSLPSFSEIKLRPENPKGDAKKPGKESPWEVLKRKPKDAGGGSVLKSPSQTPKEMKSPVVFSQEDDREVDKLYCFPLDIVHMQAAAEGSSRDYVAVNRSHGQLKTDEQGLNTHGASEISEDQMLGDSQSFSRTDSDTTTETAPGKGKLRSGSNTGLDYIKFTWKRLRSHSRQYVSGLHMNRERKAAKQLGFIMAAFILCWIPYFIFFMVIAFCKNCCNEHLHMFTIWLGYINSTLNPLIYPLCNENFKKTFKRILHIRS
5-hydroxytryptamine receptor 2A, sequence (P28223 whole entry): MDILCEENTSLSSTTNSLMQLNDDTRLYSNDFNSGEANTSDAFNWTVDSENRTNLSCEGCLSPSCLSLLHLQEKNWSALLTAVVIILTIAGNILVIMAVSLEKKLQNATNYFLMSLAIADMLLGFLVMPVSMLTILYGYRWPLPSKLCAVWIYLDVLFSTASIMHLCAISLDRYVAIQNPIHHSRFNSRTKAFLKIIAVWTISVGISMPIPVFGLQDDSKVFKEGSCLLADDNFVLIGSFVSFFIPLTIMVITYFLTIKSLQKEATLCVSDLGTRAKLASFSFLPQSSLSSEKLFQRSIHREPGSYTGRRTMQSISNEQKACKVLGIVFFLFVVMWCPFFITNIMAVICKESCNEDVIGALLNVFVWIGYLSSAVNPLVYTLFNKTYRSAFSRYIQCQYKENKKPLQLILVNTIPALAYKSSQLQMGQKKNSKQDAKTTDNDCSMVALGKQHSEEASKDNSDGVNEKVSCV

With `N=C(N)SCCc1cnc[nH]1`, the Ki (in general, the dissociation constant of the complex between target and ligand, obtained from inhibition or displacement) stood at 4.04 µM in [1], 0.00486 µM in [2] and 0.000632 µM in [3].
On to `Cc1c(C2=CCN(C(=O)N(C)C(C)C)CC2)nnn1-c1cccnc1F`, for which the inhibitory constant (Ki) in assay [4] is more than 10 µM; in assay [5], more than 10 µM; in assay [6], 8.12 µM; in [7], more than 10 µM; in assay [8], 1.45 µM.
Turning to `N#Cc1c(N)nc(SCc2csc(-c3ccc(Cl)cc3)n2)c(C#N)c1-c1ccc(OCCO)cc1` [CAPADENOSON], the inhibition constant (Ki) in assay [9] is 3.19 µM; in assay [7], more than 10 µM.
On to `C[C@@H](N)Cc1c[nH]cn1`, for which, in assay [2], the inhibition constant Ki was 0.169 µM.
As for `c1cc(CN2CCCNCCNCCCNCC2)ccc1CN1CCCNCCNCCCNCC1` [PLERIXAFOR], the Ki was more than 10 µM in assay [9]; 1.01 µM in [10]; 0.804 µM in [11]; 1.78 µM in assay [12]; 0.00274 µM in assay [3].
Regarding `C=CCN1C[C@H](C)N([C@H](c2ccc(C(=O)N(CC)CC)cc2)c2cccc(O)c2)C[C@H]1C`, the Ki in assay [13] stood at 0.0147 µM; in assay [14] it was 0.0233 µM; in assay [7] it was 0.00385 µM; in assay [15], 0.108 µM.
On to `CN(C(=O)Cc1ccc(Cl)c(Cl)c1)C(CN1CCCC1)c1cccc(OCC(=O)O)c1` (stereo not drawn), for which the values for the inhibitory constant (Ki) in assay [16], in assay [13] and in assay [7] were 5.91 µM, 0.323 µM and 0.411 µM, respectively.
